Experimental findings from patent US8067424B2, “Selective inhibitors for cyclin-dependent kinases” (Emory University, priority 2007, dated 2011) are described below.

Structures are written as SMILES. Like-named read-outs stand apart in the source and are kept apart here.

By remaining activity is commonly meant the signal under treatment as a percentage of the control signal.

What all share (type): biochemical
In one assay the target is P38β MAPK (Homo sapiens, UniProt Q15759). Kind of assay: Kinase screen: SAPK 2b/p38β2 assay. As to the method: (§1) Generally, the same procedure was used for all assays. Since the total assay volume was 25.5 microliters, 0.5 microliters of inhibitors at 51× assay concentration were added to the plates before any other addition.
(§2) The basic procedure was to add 0.5 microliters inhibitor/control in DMSO to plate. Fifteen microliters of enzyme/substrate/buffer mix were added and incubated for 5 min. Ten microliters MgATP at the relevant concentration were added and incubated for 30 min. The assay was stopped by adding 5 microliters of 3% orthophosphoric acid. The assay was transferred to a p81 filter plate and read in a scintillation counter of 30 sec/well. Note that this assay procedure was not followed for MKK1, which instead involved a two-step assay, and PKC alpha, which required the addition of lipid vesicles.
SAPK 2b/p38β2 assay: SAPK 2b/p38β2 (5-20 mU diluted in 50 mM Tris pH 7.5, 0.1 mM EGTA, 0.1 mM Na3VO4, 0.1% b-mercaptoethanol, 1 mg/ml BSA) was assayed against MBP in a final volume of 25.5 μl containing 25 mM Tris pH 7.5, 0.1 mM EGTA, 0.33 mg/ml MBP, 10 mM magnesium acetate and 0.02 mM [33P-g-ATP] (50-1000 cpm/pmole) and incubated for 30 min at room temperature. Assays were stopped by addition of 5 μl of 0.5 M (3%) orthophosphoric acid and then harvested onto P81 Unifilter plates with a wash buffer of 50 mM orthophosphoric acid.

For the next assay, the target named is PIM2 (Homo sapiens, UniProt Q9P1W9). The assay is described as follows: Kinase screen: PIM2 assay. How it is done:
as §1, §2
PIM2 assay: 5-20 mU of PIM2 (diluted in 50 mM Tris (pH 7.5), 0.1 mM EGTA, 1 mg/ml BSA, 0.1%, b-Mercaptoethanol) was assayed against substrate peptide ([…]) (SEQ ID NO: 23) in a final volume of 25.5 μl containing 50 mM Tris (pH 7.5), 0.1 mM EGTA, 0.5 mM CaCl2, 0.3 μM calmodulin, 0.1%, b-Mercaptoethanol, 300 μM substrate peptide, 10 mM magnesium acetate and 0.005 mM [33P-g-ATP] (500-1000 cpm/pmole) and incubated for 30 mins at room temperature. Assays were stopped by addition of 5 μl of 0.5M (3%) orthophosphoric acid. Assays were harvested onto P81 Unifilter plates using a wash buffer of 50 mM orthophosphoric acid.

A further assay deals with EFK2 (Homo sapiens, UniProt O00418). The assay is described as follows: Kinase screen: EF2K assay. How it is done: as §1, §2
EF2K assay: EF2K (5-20 mU diluted in 50 mM Hepes pH 6.6, 0.1% b-mercaptoethanol, 1 mg/ml BSA) was assayed against a substrate peptide ([…]) (SEQ ID NO: 27) in a final volume of 25.5 μl containing 50 mM Hepes pH 6.6, 0.2 mM CaCl2, 0.3 μM Calmodulin, 0.05% b-mercaptoethanol, 300 μM substrate peptide, 10 mM magnesium acetate and 0.005 mM [33P-g-ATP] (50-1000 cpm/pmole) and incubated for 30 min at room temperature. Assays were stopped by addition of 5 μl of 0.5 M (3%) orthophosphoric acid and then harvested onto P81 Unifilter plates with a wash buffer of 50 mM orthophosphoric acid.

The next assay has as its target T1, EPH-B3 (Homo sapiens, UniProt P54753).
T1 sequence (P54753 34-998): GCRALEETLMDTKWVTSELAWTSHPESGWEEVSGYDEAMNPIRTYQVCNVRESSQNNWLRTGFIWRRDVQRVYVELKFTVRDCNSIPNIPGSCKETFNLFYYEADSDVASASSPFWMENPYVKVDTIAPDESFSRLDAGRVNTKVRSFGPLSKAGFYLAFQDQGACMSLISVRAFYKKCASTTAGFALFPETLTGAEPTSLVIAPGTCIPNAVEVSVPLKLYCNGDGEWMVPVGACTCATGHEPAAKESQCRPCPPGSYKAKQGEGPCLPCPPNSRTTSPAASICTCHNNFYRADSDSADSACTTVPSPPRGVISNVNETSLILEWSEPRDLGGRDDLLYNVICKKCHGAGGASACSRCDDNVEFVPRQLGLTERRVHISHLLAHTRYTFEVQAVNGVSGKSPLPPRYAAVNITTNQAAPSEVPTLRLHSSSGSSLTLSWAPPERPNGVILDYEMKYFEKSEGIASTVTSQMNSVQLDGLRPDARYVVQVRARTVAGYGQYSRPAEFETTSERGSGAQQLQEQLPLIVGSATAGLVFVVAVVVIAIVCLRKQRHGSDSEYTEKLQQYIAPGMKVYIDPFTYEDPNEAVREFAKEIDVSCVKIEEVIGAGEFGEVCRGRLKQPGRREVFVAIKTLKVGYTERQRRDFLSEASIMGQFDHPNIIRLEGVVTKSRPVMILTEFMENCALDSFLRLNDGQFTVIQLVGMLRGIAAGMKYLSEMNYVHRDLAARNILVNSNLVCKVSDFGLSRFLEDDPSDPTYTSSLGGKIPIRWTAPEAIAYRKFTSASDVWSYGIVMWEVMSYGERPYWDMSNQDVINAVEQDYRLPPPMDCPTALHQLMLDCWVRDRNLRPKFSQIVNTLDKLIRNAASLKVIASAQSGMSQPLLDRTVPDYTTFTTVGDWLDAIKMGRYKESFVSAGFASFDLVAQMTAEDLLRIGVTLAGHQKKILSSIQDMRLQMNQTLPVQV
Kind of assay: Kinase screen: EPH-B3 assay. The settings on record: 10 micromolar compound; for remaining activity at 10 µM: read-out: mean activity remaining (as a percentage of the original activity), EPH-B3. How it is done:
as §1, §2
EPH-B3 assay: EPH-B3 (5-20 mU diluted in 50 mM Tris pH 7.5, 0.1 mM EGTA, 1 mg/ml BSA) was assayed against a substrate peptide (Poly Glut Tyr) in a final volume of 25.5 μl containing 50 mM Tris pH 7.5, 1 mg/ml substrate peptide, 10 mM magnesium acetate and 0.005 mM [33P-g-ATP] (50-1000 cpm/pmole) and incubated for 30 min at room temperature. Assays were stopped by addition of 5 μl of 0.5 M (3%) orthophosphoric acid and then harvested onto P81 Unifilter plates with a wash buffer of 50 mM orthophosphoric acid.

Where [1] appears, read: 10 micromolar compound, read-out: mean activity remaining (as a percentage of the original activity), p38b MAPK.
The mark [2] stands for this setting: 10 micromolar compound, read-out: mean activity remaining (as a percentage of the original activity), PIM2.
The mark [3] stands for this setting: 10 micromolar compound, read-out: mean activity remaining (as a percentage of the original activity), EFK2.

P38β MAPK, sequence (Q15759 whole entry): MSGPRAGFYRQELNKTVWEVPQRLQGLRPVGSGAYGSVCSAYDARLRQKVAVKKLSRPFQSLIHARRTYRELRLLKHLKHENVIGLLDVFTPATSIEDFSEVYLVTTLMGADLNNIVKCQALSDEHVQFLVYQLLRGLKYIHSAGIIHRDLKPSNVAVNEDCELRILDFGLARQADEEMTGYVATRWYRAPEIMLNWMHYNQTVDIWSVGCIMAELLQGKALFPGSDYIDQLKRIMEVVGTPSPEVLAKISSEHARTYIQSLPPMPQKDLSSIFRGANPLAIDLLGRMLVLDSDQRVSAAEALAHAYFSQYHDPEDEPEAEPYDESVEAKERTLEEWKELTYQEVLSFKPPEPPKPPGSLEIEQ
PIM2, sequence (Q9P1W9 whole entry, species assumed): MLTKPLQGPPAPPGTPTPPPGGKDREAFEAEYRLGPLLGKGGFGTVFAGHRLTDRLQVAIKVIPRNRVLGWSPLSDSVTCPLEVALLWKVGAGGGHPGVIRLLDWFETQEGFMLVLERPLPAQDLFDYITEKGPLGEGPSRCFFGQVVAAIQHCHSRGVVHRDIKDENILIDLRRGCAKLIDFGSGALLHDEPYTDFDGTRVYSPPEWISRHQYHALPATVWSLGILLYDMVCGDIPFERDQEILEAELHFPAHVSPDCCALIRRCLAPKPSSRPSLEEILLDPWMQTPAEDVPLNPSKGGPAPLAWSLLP

With `CC(C)c1cnn2c(NCc3ccccc3F)cc(NCCCCCN)nc12` [ICEC-0232], the “mean activity remaining (as a percentage of the original activity), p38b MAPK” value at P38β MAPK (10 micromolar compound) came out at 102%. For the same molecule, at PIM2 (10 micromolar compound), the “mean activity remaining (as a percentage of the original activity), PIM2” value was 102%. The “mean activity remaining (as a percentage of the original activity), EFK2” value on EFK2 (10 micromolar compound) turned out to be 98%. Also, the “mean activity remaining (as a percentage of the original activity), EPH-B3” value on EPH-B3 came to 88%.

Take `CC[C@H](CO)Nc1cc(NCc2ccccc2)n2ncc(C(C)C)c2n1` [ICEC0067]: the remaining activity at 10 µM at P38β MAPK (setting [1]) was 98%; at PIM2 (setting [2]), 92%; on EFK2 (setting [3]), 95%; on EPH-B3, 79%.

On to `CC(C)c1cnn2c(NCc3ccccc3)cc(NCCCCCCCN)nc12` [BS-181], for which the remaining activity at 10 µM on P38β MAPK (P38β MAPK, 10 μM, read-out: Mean Remaining Enzyme Activity (%)) is 115%; on PIM2 (PIM2, 10 μM, read-out: Mean Remaining Enzyme Activity (%)) it was 102%; at EFK2 (EFK2, 10 μM, read-out: Mean Remaining Enzyme Activity (%)), 119%.

As for `C=C[C@H](CO)Nc1cc(NCc2ccccc2)n2ncc(C(C)C)c2n1` [ICEC0065], the remaining activity at 10 µM on P38β MAPK (setting [1]) is 104%; at PIM2 (setting [2]) it was 93%; on EFK2 (setting [3]), 97%; at EPH-B3, 83%.

Regarding `CC(C)c1cnn2c(NCc3ccccc3)cc(N[C@@H](CO)[C@H](O)CO)nc12` [ICEC0318, (3S)-3-(7-(Benzylamino)-3-isopropylpyrazolo[1,5-a]pyrimidin-5-ylamino)butane-1,2,4-triol], the remaining activity at 10 µM worked out at 94% at P38β MAPK (setting [1]), 94% at PIM2 (setting [2]), 92% on EFK2 (setting [3]) and 72% at EPH-B3.
